These results are taken from ChEMBL document CHEMBL2331398, “Synthesis and growth inhibition activity of fluorinated derivatives of tamoxifen” (2013).

Broadly, the GI50 is the concentration at which growth is held to half of that of the control. Low readings indicate greater sensitivity of the cells, high ones lower sensitivity of the cells.

Molecules are shown by their SMILES. Where only a bound is given, the exact number is not on record here.

Common to all, as to format: functional
One assay concerns HT-29. The experiment in a line: Growth inhibition of human HT-29 cells.
A further assay has as its system MCF7. In words: Growth inhibition of estrogen-dependent human MCF7 cells.
A further assay has as its system MDA-MB-231. The experiment in a line: Growth inhibition of estrogen-independent human MDA-MB-231 cells.
For the next assay, the system named is M21. In words: Growth inhibition of human M21 cells.

Regarding `F/C(=C(\c1ccccc1)c1ccc(OCCN2CCCCC2)cc1)c1ccccc1`, the GI50 was determined as 8.7 µM with HT-29, 6.5 µM in the assay with MCF7, 14.4 µM in the assay with MDA-MB-231 and 5.8 µM with M21.
Turning to `CC/C(=C(\c1ccccc1)c1ccc(OCCN(C)C)cc1)c1ccccc1` [TAMOXIFEN], the GI50 in the assay with HT-29 stood at 9.5 µM; with MDA-MB-231, 18.8 µM; with M21, 11 µM.
Consider `F/C(=C(/c1ccccc1)c1ccc(OCCN2CCCCC2)cc1)c1ccccc1`, for which the GI50 in the assay with HT-29 is 7.3 µM; in the assay with MCF7, 8.8 µM; in the assay on MDA-MB-231, 12.5 µM; with M21, 5.6 µM.
For the molecule `Oc1ccc(/C(=C(\F)c2ccccc2)c2ccc(OCCN3CCCCC3)cc2)cc1`, the GI50 was 8.9 µM in the assay on HT-29, 8.4 µM in the assay with MCF7, 25.8 µM with MDA-MB-231 and 15.9 µM with M21.
For `F/C(=C(\c1ccccc1)c1ccc(OCCN2CCCC2)cc1)c1ccccc1`, in that order: 40.3 µM, 41.7 µM, above 100 µM and 44 µM.
Take `OCc1ccc(/C(=C(\F)c2ccccc2)c2ccc(OCCN3CCCCC3)cc2)cc1`: the GI50 in the assay on HT-29 amounted to 6.9 µM; with MCF7 it was 7.4 µM; with MDA-MB-231 it was 12.6 µM; in the assay with M21, 5.9 µM.
For `CN(C)CCOc1ccc(/C(=C(/F)c2ccccc2)c2ccccc2)cc1`, in that order: 10.5 µM, 10.4 µM, 22.2 µM and 13.5 µM.
With `Oc1ccc(C(=C(F)c2ccccc2)c2ccccc2)cc1` (mixture of isomers), the GI50 in the assay on HT-29 amounted to 32.8 µM; in the assay with MCF7 it was 21.3 µM; in the assay with MDA-MB-231, 46.9 µM; in the assay on M21, 53 µM.
Take `O=Cc1ccc(/C(=C(\F)c2ccccc2)c2ccc(OCCN3CCCCC3)cc2)cc1`: the GI50 in the assay with HT-29 came to 5.9 µM; in the assay on MCF7, 5.6 µM; in the assay on MDA-MB-231, 10.6 µM; in the assay on M21, 4.2 µM.
Turning to `Oc1ccc(/C(=C(\F)c2ccccc2)c2ccc(OCCN3CCCC3)cc2)cc1`, the GI50 was found to be 8.9 µM in the assay with HT-29, 5.6 µM in the assay on MCF7, 10.6 µM in the assay on MDA-MB-231 and 6.8 µM in the assay with M21.
With `Oc1ccc(C(=C(F)c2cccc(C(F)(F)F)c2)c2ccccc2)cc1`, the GI50 in the assay on HT-29 turned out to be 59.8 µM; in the assay on MCF7 it was 71.7 µM; in the assay on MDA-MB-231, 105 µM; in the assay with M21, 89.6 µM.
For `CN(C)CCOc1ccc(/C(=C(/F)c2ccccc2)c2ccc(O)cc2)cc1`, the concentration for 50% growth inhibition (GI50) was 8.7 µM in the assay with HT-29, 3.6 µM in the assay on MCF7, 7.3 µM in the assay on MDA-MB-231 and 4.4 µM with M21.
